Like-named read-outs stand apart in the source and are kept apart here.
What was measured:
[1] = target: T1, Plasmodium falciparum calcium-dependent protein kinase 4 (CDPK4) (Plasmodium falciparum, UniProt Q8IBS5); assay: CDPK4 Kinase-Glo ATP-consumption screen and dose-response; assay type: biochemical; settings: hits below 1 uM
T1 construct: 6-Histidine (N); made in house
T1 sequence (Q8IBS5 1-528): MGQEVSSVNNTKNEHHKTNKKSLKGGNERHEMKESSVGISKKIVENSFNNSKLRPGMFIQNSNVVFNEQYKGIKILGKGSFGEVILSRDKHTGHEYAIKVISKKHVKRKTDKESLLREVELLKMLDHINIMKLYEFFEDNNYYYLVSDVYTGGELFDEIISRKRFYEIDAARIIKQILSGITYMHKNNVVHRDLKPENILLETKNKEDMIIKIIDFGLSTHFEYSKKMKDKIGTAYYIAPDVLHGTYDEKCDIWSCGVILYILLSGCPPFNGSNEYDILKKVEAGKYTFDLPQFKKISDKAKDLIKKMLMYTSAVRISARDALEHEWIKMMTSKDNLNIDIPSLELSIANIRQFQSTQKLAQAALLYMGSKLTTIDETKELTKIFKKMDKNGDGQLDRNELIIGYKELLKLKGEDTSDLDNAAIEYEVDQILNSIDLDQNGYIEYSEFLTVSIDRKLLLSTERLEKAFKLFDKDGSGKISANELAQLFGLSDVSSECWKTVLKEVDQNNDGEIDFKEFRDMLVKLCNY
Description: Biochemical assays were performed in white 384-well plates (Nunc). Liquid transfers were done manually with 8-channel pipets. Compounds were initially tested in a single-point screen (final concentration 1 μM). […] The catalytic activity of each kinase was considered proportional to ATP consumed, as determined from measurements of residual [ATP] with the luciferase-based reagent Kinase-Glo (Promega) following incubation. Luminescence (proportional to residual [ATP]) was measured on the plate readers FLx800 (BioTek Instruments, Winooski, VT, USA) and MicroBeta^2 (PerkinElmer, Waltham, MA, USA). Incubation times were chosen to ensure near-complete ATP depletion in the absence of inhibition, thus maximizing the difference in signal between inhibited and uninhibited wells.
40 μM Syntide-2 was used as a substrate; BKI-1 [14] was used as a control inhibitor, while reaction mixtures lacking Syntide-2 were included as an additional negative control. Incubation time was 90 minutes. Reactions were terminated by adding excess EGTA (5 mM), which sequesters Ca^2+ and halts calcium-dependent kinase activity.

PKG [2] = target: T2, PKG (Plasmodium falciparum, UniProt Q8I719); assay: PKG IC50 (supplementary data file); assay type: biochemical
T2 sequence (Q8I719 whole entry): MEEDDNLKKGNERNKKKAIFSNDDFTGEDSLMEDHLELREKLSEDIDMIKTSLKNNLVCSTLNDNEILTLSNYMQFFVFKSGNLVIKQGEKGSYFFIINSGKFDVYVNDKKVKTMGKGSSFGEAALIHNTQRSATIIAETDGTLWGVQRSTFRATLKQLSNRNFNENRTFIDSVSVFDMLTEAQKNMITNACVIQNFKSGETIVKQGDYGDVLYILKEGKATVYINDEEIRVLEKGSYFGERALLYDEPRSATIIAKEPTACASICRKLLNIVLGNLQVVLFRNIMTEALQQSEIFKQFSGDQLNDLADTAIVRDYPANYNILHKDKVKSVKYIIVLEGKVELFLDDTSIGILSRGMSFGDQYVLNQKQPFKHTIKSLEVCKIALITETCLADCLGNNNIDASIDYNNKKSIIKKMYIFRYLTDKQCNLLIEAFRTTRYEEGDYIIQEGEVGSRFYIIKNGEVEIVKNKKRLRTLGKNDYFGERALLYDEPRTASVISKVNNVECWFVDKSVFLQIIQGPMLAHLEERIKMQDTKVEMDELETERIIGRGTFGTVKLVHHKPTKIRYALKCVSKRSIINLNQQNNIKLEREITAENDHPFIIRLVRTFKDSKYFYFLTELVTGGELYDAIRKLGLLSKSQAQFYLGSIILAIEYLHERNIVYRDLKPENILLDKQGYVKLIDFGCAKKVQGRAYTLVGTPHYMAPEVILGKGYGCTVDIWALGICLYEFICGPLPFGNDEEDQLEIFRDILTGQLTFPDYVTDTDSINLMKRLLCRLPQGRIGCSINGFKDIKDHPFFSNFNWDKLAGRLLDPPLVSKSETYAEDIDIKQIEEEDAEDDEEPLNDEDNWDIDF
Text: (§1) Supplement pone.0149996.s003.xls, sheet "combined_1_sorted"

HepG2 cells = settings: HepG2 cells, cited from earlier work
P. falciparum 3D7 cells = settings: P. falciparum 3D7, cited from earlier work
P. falciparum DD2 = system: P. falciparum DD2; parameters: method as in ChEMBL; settings: ref ChEMBL; cited from earlier work
3D7 PFLDH [3] = system: 3D7 PFLDH; parameters: method as in ChEMBL; settings: ref ChEMBL; cited from earlier work
[4] = target: T3, Plasmodium falciparum calcium-dependent protein kinase 1 (CDPK1) (Plasmodium falciparum, UniProt P62344); assay: CDPK1 Kinase-Glo ATP-consumption screen and dose-response; assay type: biochemical; settings: hits below 1 uM; read-out: CDPK1 IC50
T3 construct: 6-Histidine (N); made in house
T3 sequence (P62344 whole entry): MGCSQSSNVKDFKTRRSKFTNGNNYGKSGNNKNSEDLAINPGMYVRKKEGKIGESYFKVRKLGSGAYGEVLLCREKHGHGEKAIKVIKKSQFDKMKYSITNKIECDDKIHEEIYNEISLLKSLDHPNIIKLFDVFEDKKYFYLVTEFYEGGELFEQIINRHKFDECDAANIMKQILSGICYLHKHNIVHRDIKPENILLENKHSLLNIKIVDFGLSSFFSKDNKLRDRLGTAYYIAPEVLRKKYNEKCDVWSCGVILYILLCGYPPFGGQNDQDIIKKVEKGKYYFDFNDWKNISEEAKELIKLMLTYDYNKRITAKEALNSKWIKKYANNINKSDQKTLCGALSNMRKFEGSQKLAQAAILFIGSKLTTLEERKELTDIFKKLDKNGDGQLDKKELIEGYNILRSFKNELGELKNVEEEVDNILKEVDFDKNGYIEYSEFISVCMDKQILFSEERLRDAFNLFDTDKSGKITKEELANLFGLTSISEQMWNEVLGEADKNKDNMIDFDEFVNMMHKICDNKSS
Procedure, shortened: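 ATP consumption by recombinant P. falciparum CDPK4 or CDPK1 measured as residual ATP by Kinase-Glo luminescence, with 40 μM Syntide-2 substrate and 90 min incubation stopped with 5 mM EGTA. Single-point screen at 1 μM final, followed by dose-response; no-substrate wells as negative control.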

PKG [5] = target: T2, PKG; assay: PKG IC50 (supplementary data file of hits); assay type: biochemical
Text: as §1

DD2 = system: DD2; parameters: method as in F.J. Gamo et al., Nature 2010; settings: P. falciparum Dd2; downloaded from ChEMBL ref F.J. Gamo et al., Nature 2010; cited from earlier work
3D7 PFLDH [6] = system: 3D7 PFLDH; parameters: method as in F.J. Gamo et al., Nature 2010; settings: downloaded from ChEMBL ref F.J. Gamo et al., Nature 2010; cited from earlier work
[7] = downloaded from ChEMBL ref F.J. Gamo et al., Nature 2010

Row | Compound | IC50 [1] | IC50 (PKG [2]) | IC50 [4] | IC50 (PKG [5]) | PCT_INHIB_HEPG2 (HepG2 cells; ref ChEMBL) | PCT_IHB_3D7 (P. falciparum 3D7 cells; ref ChEMBL) | pXC50_3D7 (P. falciparum 3D7 cells; ref ChEMBL) | PCT_INHB_DD2 (P. falciparum DD2) | PCT_INHIB_3D7_PFLDH (3D7 PFLDH [3]) | PCT_INHIB_HEPG2 (HepG2 cells; [7]) | PCT_IHB_3D7 (P. falciparum 3D7 cells; [7]) | pXC50_3D7 (P. falciparum 3D7 cells; [7]) | PCT_INHB_DD2 (DD2) | PCT_INHIB_3D7_PFLDH (3D7 PFLDH [6])
1 | O=C(Nc1cccc(-c2nn3ncccc3c2-c2ccnc(Nc3cccc(-c4cnco4)c3)n2)c1)c1c(F)cccc1F [TCMDC-135550] | 0.145 µM |  | 0.023 µM | > 10 µM |  |  |  |  |  | 96 | 97 | 6.779 | 98 | 2
2 | O=C(NCC(c1ccc(C(F)(F)F)cc1)N1CCCC1)c1cc(-c2ccncc2)c(-c2cccc(O)c2)o1.O=C(O)C(F)(F)F (stereo not drawn) [TCMDC-135665] | 0.178 µM |  | 0.283 µM | 7.64 µM |  |  |  |  |  | 9 | 95 | 5.973 | 53 | 0
3 | O=C(Nc1cccc(-c2nn3ccccc3c2-c2ccnc(Nc3cccc(-c4cnco4)c3)n2)c1)C1CCCCC1 [TCMDC-135769] | 0.612 µM |  | 0.164 µM | > 10 µM |  |  |  |  |  | 71 | 95 | 6.584 | 99 | 0
4 | CCN(CC)CCNC(=O)c1ccc(N/C=C2\C(=O)Nc3ccc(S(=O)(=O)Cc4c(Cl)cccc4Cl)cc32)cc1 [TCMDC-135945] | 0.073 µM | > 10 µM |  |  | 25 | 100 | 6.0758 | 56 | 3 |  |  |  |  | 
5 | Cc1csc(-c2ncc(OC[C@@H](N)Cc3ccccc3)cc2-c2ccc3[nH]nc(C)c3c2)c1.O=C(O)C(F)(F)F [TCMDC-136087] | 0.42 µM | > 10 µM | 0.044 µM |  | 48 | 98 | 6.078 | 35 | 4 |  |  |  |  | 
6 | CCn1c(-c2nonc2N)nc2c(-c3cccc(NC(=O)Nc4cccc(C(F)(F)F)c4)c3)ncc(OCCCN)c21.O=C(O)C(F)(F)F [TCMDC-136178] | 0.342 µM |  | 0.015 µM | 2.08 µM |  |  |  |  |  | 21 | 95 | 6.014 | 70 | 2
7 | CCn1c(-c2nonc2N)nc2c(-c3cccc(NC(=O)Nc4ccccc4OC)c3)ncc(OCCCN)c21.O=C(O)C(F)(F)F [TCMDC-136190] | 0.706 µM |  | 0.032 µM | 0.783 µM |  |  |  |  |  | 84 | 92 | 5.998 | 58 | 0
8 | CCn1c(-c2nonc2N)nc2c(-c3cccc(NC(=O)Nc4ccccc4Cl)c3)ncc(OCCCN)c21.O=C(O)C(F)(F)F [TCMDC-136192] | 0.138 µM |  | 0.072 µM | 0.566 µM |  |  |  |  |  | 2 | 99 | 6.173 | 74 | 0
9 | Cc1n[nH]c2ccc(-c3cc(OC[C@@H](N)Cc4ccccc4)cnc3-c3cc4ccccc4s3)cc12.O=C(O)C(F)(F)F [TCMDC-136352] | 0.563 µM | > 10 µM |  |  | 41 | 99 | 6.092 | 68 | 0 |  |  |  |  | 

The next lines start with results.

Row | IC50 [1] | IC50 (PKG [2]) | IC50 [4] | IC50 (PKG [5]) | Compound | PCT_INHIB_HEPG2 (HepG2 cells; ref ChEMBL) | PCT_IHB_3D7 (P. falciparum 3D7 cells; ref ChEMBL) | pXC50_3D7 (P. falciparum 3D7 cells; ref ChEMBL) | PCT_INHB_DD2 (P. falciparum DD2) | PCT_INHIB_3D7_PFLDH (3D7 PFLDH [3]) | PCT_INHIB_HEPG2 (HepG2 cells; [7]) | PCT_IHB_3D7 (P. falciparum 3D7 cells; [7]) | pXC50_3D7 (P. falciparum 3D7 cells; [7]) | PCT_INHB_DD2 (DD2) | PCT_INHIB_3D7_PFLDH (3D7 PFLDH [6])
10 | 0.478 µM | > 10 µM |  |  | N#Cc1ccc(C(=O)Nc2cc(-c3cccc(O)c3)cc3[nH]ncc23)cc1 [TCMDC-134118] | 15 | 90 | 5.863 | 79 | 0 |  |  |  |  | 
11 | 0.352 µM |  | 0.039 µM | > 10 µM | O=C(Nc1cccc(-c2nn3ncccc3c2-c2ccnc(Nc3ccccc3)n2)c1)c1c(F)cccc1F [TCMDC-134631] |  |  |  |  |  | 51 | 98 | 6.139 | 96 | 0
12 | 0.775 µM |  |  | > 10 µM | O=C(Nc1ccccc1)Nc1cccc(-c2nn3c(OCCN4CCCC4)cccc3c2-c2ccncc2)c1 [TCMDC-135539] |  |  |  |  |  | 30 | 100 | 6.394 | 98 | 4
13 | 0.191 µM |  |  | > 10 µM | Cn1cccc1C(=O)Nc1cccc(-c2nn3ccccc3c2-c2ccnc(Nc3ccc4c(c3)OCCO4)n2)c1 [TCMDC-135663] |  |  |  |  |  | 12 | 95 | 5.869 | 27 | 4
14 | 0.077 µM |  | 0.06 µM | > 10 µM | COc1cc(Nc2nccc(-c3c(-c4cccc(NC(=O)c5c(F)cccc5F)c4)nn4ccccc34)n2)cc(OC)c1OC [TCMDC-135668] |  |  |  |  |  | 74 | 98 | 7.112 | 98 | 4
15 | 0.201 µM |  |  | > 10 µM | CCS(=O)(=O)c1ccc(OC)c(Nc2nccc(-c3c(-c4cccc(NC(=O)c5c(F)cccc5F)c4)nn4ncccc34)n2)c1 [TCMDC-135682] |  |  |  |  |  | 27 | 87 | 5.986 | 88 | 0
16 | 0.045 µM |  |  | > 10 µM | COc1cc(Nc2nccc(-c3c(-c4cccc(NC(=O)c5c(F)cccc5F)c4)nn4ncccc34)n2)cc(OC)c1OC [TCMDC-135684] |  |  |  |  |  | 96 | 98 | 7.4867 | 97 | 1
17 | 0.311 µM |  | 0.092 µM | > 10 µM | O=C(Nc1cccc(-c2nn3ccccc3c2-c2ccnc(Nc3ccc(C(=O)N4CCOCC4)cc3)n2)c1)c1c(F)cccc1F [TCMDC-135910] |  |  |  |  |  | 72 | 99 | 6.417 | 97 | 4
18 | 0.116 µM | > 10 µM |  |  | NS(=O)(=O)c1cccc(N/C=C2\C(=O)Nc3ccc(S(=O)(=O)Cc4c(Cl)cccc4Cl)cc32)c1 [TCMDC-135947] | 1 | 92 | 6.143 | 99 | 4 |  |  |  |  | 
19 | 0.853 µM |  | 0.152 µM | > 10 µM | COCCOc1ccc(Nc2nccc(-c3c(-c4cccc(NC(=O)c5c(F)cccc5F)c4)nn4ccccc34)n2)cc1Cl [TCMDC-135955] |  |  |  |  |  | 53 | 99 | 6.448 | 97 | 4
20 | 0.637 µM |  | 0.159 µM | > 10 µM | CC(C)(C)CNCC(C)(C)c1nc(-c2ccc(Cl)c(O)c2)c(-c2ccncc2)[nH]1.Cl [TCMDC-140549] |  |  |  |  |  | 42 | 100 | 6.221 | 98 | 5
21 |  |  | 0.019 µM | 0.242 µM | CC(C)(CN)c1nc(-c2ccc(Br)c(O)c2)c(-c2ccncc2)[nH]1.Cl [TCMDC-140680] |  |  |  |  |  | 31 | 96 | 6.015 | 97 | 0

— paper PMC4774911, “Biochemical Screening of Five Protein Kinases from Plasmodium falciparum against 14,000 Cell-Active Compounds” (PLoS ONE, 2016)
